Like-named read-outs stand apart in the source and are kept apart here.
Columns and labels:
[1] = tested on: advanced cholangiocarcinoma subjects with FGFR alterations
Description: Tumor assessments: Conducted every 8 (±1) weeks up to 1 year from start of study drug, then every 12 (±1) weeks thereafter until the patient dies, or withdrawal of consent or conclusion of the study, whichever occurs first.
ORR (complete response [CR] or partial response [PR]) and disease control rate (DCR) was calculated with 95% CI.
PFS was represented with descriptive summary statistics; Kaplan-Meier method was used for evaluation.

[2] = LUC2001 (NCT02699606): pharmacokinetics and PK/PD (serum phosphate); format: in vivo, human
Description: Pharmacodynamic and safety: Serum phosphate concentration was continuously monitored as a pharmacodynamic endpoint during the study to facilitate dose adjustment per protocol specification. Serum phosphate was measured on cycle 1 day 14 for pharmacodynamic uptitration. On study, serum phosphate concentration was set to be below 7 mg/dL in order to avoid prolonged hyperphosphatemia.
Post hoc visual predictive check was performed on an existing population PK model, built with data from 373 patients with various tumor types (majority were caucasians).
Post hoc visual predictive check was performed on serum phosphate concentration data based on an existing population PK/PD model.

[3] = tested on: patients with FGFR-aberrant cholangiocarcinoma
[4] = as of 20 Aug. 2018, 11 patients
[5] = conclusion of snapshot 20 Mar. 2018
[6] = snapshot as of 20 Mar. 2018, 8 mg qd
[7] = snapshot as of 20 Mar. 2018, 11 subjects, 8 mg qd
[8] = as of 20 Aug. 2018, FGFR2 fusion
[9] = as of 20 Aug. 2018, patients with FGFR2 alteration (n=9)
[10] = snapshot as of 20 Mar. 2018, 11 response evaluable, 8 mg qd
[11] = median follow-up 5.5 mo, 11 patients
[12] = of the 3 partial responses among 11 patients

COc1cc(OC)cc(N(CCNC(C)C)c2ccc3ncc(-c4cnn(C)c4)nc3c2)c1 [erdafitinib, N-(3,5-dimethoxy-phenyl)-N′-(1-methylethyl)-N-[3-(1-methyl-1H-pyrazol-4-yl)quinoxalin-6-yl]ethane-1,2-diamine]
Drug-related TEAE Alanine aminotransferase increased, Any grade (Erdafitinib 8 mg (QD), N = 11): 2 N
Drug-related TEAE Aspartate aminotransferase increased, Any grade (Erdafitinib 8 mg (QD), N = 11): 2 N
Drug-related TEAE Constipation, Any grade (Erdafitinib 8 mg (QD), N = 11): 3 N
Drug-related TEAE Decreased appetite, Any grade (Erdafitinib 8 mg (QD), N = 11): 3 N
Drug-related TEAE Diarrhoea, Any grade (Erdafitinib 8 mg (QD), N = 11): 3 N
Drug-related TEAE Dry eye, Any grade (Erdafitinib 8 mg (QD), N = 11): 2 N
Drug-related TEAE Dry mouth, Any grade (Erdafitinib 8 mg (QD), N = 11): 8 N
Drug-related TEAE Dry mouth, ≥Grade 3 (Erdafitinib 8 mg (QD), N = 11): 1 N
Drug-related TEAE Dry skin, Any grade (Erdafitinib 8 mg (QD), N = 11): 5 N
Drug-related TEAE Dry skin, ≥Grade 3 (Erdafitinib 8 mg (QD), N = 11): 1 N
Drug-related TEAE Hyperphosphataemia, Any grade (Erdafitinib 8 mg (QD), N = 11): 10 N
Drug-related TEAE Hyponatremia, Any grade (Erdafitinib 8 mg (QD), N = 11): 1 N
Drug-related TEAE Hyponatremia, ≥Grade 3 (Erdafitinib 8 mg (QD), N = 11): 1 N
Drug-related TEAE Nail disorder, Any grade (Erdafitinib 8 mg (QD), N = 11): 4 N
Drug-related TEAE Nail disorder, ≥Grade 3 (Erdafitinib 8 mg (QD), N = 11): 1 N
Drug-related TEAE Nausea, Any grade (Erdafitinib 8 mg (QD), N = 11): 2 N
Drug-related TEAE Onycholysis, Any grade (Erdafitinib 8 mg (QD), N = 11): 1 N
Drug-related TEAE Onycholysis, ≥Grade 3 (Erdafitinib 8 mg (QD), N = 11): 1 N
Drug-related TEAE Onychomycosis, Any grade (Erdafitinib 8 mg (QD), N = 11): 2 N
Drug-related TEAE Palmar-plantar erythrodysaesthesia syndrome, Any grade (Erdafitinib 8 mg (QD), N = 11): 4 N
Drug-related TEAE Paronychia, Any grade (Erdafitinib 8 mg (QD), N = 11): 3 N
Drug-related TEAE Paronychia, ≥Grade 3 (Erdafitinib 8 mg (QD), N = 11): 1 N
Drug-related TEAE Punctate keratitis, Any grade (Erdafitinib 8 mg (QD), N = 11): 2 N
Drug-related TEAE Stomatitis, Any grade (Erdafitinib 8 mg (QD), N = 11): 8 N
Drug-related TEAE Stomatitis, ≥Grade 3 (Erdafitinib 8 mg (QD), N = 11): 2 N
Patients with drug-related TEAEs, Any grade (Erdafitinib 8 mg (QD), N = 11): 11 N
Patients with drug-related TEAEs, ≥Grade 3 (Erdafitinib 8 mg (QD), N = 11): 6 N
patients reporting Grade 3 or higher TEAEs (as of 20 Aug. 2018, 8 mg once daily): 6/11
AE leading to treatment discontinuation or death [4]: no AE
most common TEAEs [4]: hyperphosphatemia, dry mouth, stomatitis, dry skin, nail disorder, and palmar-plantar erythrodysaesthesia syndrome
patients who experienced drug-related TEAEs (as of 20 Aug. 2018, 11 patients, 8 mg once daily): All patients
Serious TEAEs (not drug-related) (as of 20 Aug. 2018, of 11 (27.3%), upper gastrointestinal haemorrhage, pyelonephritis acute, pathological fracture, n=1 each): 3 patients
Drug-related TEAEs leading to dose reduction (as of 20 Aug. 2018, of 11 patients (45.5%)): 5 patients
Grade 3 or higher drug-related TEAEs (as of 20 Aug. 2018, of 11 patients (54.5%)): Six
drug-related TEAEs leading to dose interruption (as of 20 Aug. 2018, of 11 patients (100%)): 11 patients
safety profile in patients with FGFR-aberrant advanced cholangiocarcinoma [5]: tolerable safety profile
AE diarrhea (subjects) [6]: 4/11
AE dry mouth (subjects) [6]: 7/11
AE hyperphosphatemia (subjects) [6]: 8/11
AE nail disorder (subjects) [6]: 4/11
AE palmar-plantar erythrodysaesthesia syndrome (subjects) [6]: 4/11
AE stomatitis (subjects) [6]: 7/11
AE leading to treatment discontinuation or death [7]: no AE
drug related SAE [7]: no drug related SAE
subjects who experienced AEs [7]: All subjects
subjects who experienced Grade 3 or worse AEs [7]: 7
subjects who experienced serious AEs (SAEs) [7]: 3
subjects with AEs leading to dose reduction [7]: 3
subjects with AEs leading to drug interruption [7]: all
ORR - Objective Response Rate (CR+PR) ([1]; as of 20 Aug. 2018, 11 response evaluable, 8 mg once daily, n=5, 95% CI 16.7;76.6): 45.5%
ORR (CR+PR+uCR+uPR) ([1]; as of 20 Aug. 2018, 11 response evaluable, 8 mg once daily, n=6, 95% CI 23.4;83.3): 54.5%
Disease Control Rate-DCR (CR+PR+SD) ([1]; as of 20 Aug. 2018, 11 response evaluable, 8 mg once daily, n=8, 95% CI 39.0;94.0): 72.7%
DCR (CR+PR+uCR+uPR+SD) ([1]; as of 20 Aug. 2018, 11 response evaluable, 8 mg once daily, n=9, 95% CI 48.2;97.7): 81.8%
9-months PFS rate ([1]; as of 20 Aug. 2018, 95% CI 11, 68): 40%
stable disease (SD), number of patients [1, 8]: 3
unconfirmed PR, number of patients [1, 8]: 1
confirmed PR, number of patients ([1]; as of 20 Aug. 2018, all FGFR2 alteration (1 mutation and 4 fusions)): 5
progressive disease (PD), number of patients ([1]; as of 20 Aug. 2018, both with FGFR3 mutations and concurrent KRAS mutations): 2
9-months PFS rate [1, 9]: 49%
DCR [1, 9]: 100%
ORR (CR+PR+uCR+uPR) [1, 9]: 66.7%
maximum tumor shrinkage ([1]; one PR patient with a FGFR2-KIAA1598 fusion): −46.2%
DCR (CR+PR+uCR+uPR+SD) [1, 10]: 81.8%
ORR (CR+PR+uCR+uPR) [1, 10]: 45.5%
PD, number of subjects [1, 10]: 2
partial response (PR), number of subjects [1, 10]: 3
stable disease (SD), number of subjects [1, 10]: 4
unconfirmed PR (uPR), number of subjects [1, 10]: 2
results of PK and PK/PD relationship in Asian patients with advanced CCA ([2]; as of 20 Aug. 2018, post hoc visual predictive check on population PK and PK/PD models): consistent with that known from patients with other types of solid tumor and different ethnic background
PK characteristics [2, 5]: consistent with data from other erdafitinib studies
objective response rate ([3]; 9 mg QD or 10 mg intermittent, all responses at 10 mg intermittent): 27.3%
partial responses (number of patients) ([3]; 11 patients with FGFR-aberrant cholangiocarcinoma, 9 mg QD (n=1) or 10 mg intermittent (n=10)): 3
Overall disease control rate, including stable disease ([3]; 11 patients, 9 mg QD or 10 mg intermittent, 6/11): 54.5%
6-mo progression-free survival rate [3, 11]: 36%
9-mo progression-free survival rate [3, 11]: 24%
Median progression-free survival ([3]; median follow-up 5.5 mo, 95% CI 1.6 to 11.8 mo): 5.1 mo
partial responses in patients with fusion FGFR2-BICC1 [3, 12]: 1
partial responses in patients with fusion FGFR2-CCAR1 [3, 12]: 1

Reference: patent US12133851B2, “Treatment of cholangiocarcinoma” (Janssen Pharmaceutica NV, priority 2018, dated 2024)
